Test results reported in patent US20210353595A1, “USE OF MELATONIN IN PREPARATION OF MEDICAMENT FOR INHIBITING AND/OR KILLING BACTERIUM” (priority 2020, published 2021).
Values after ≈ are worked out from the molar mass of the structure shown.

Tests used:
[1] = tested on: Pasteurella multocida; experiment: Non-targeted metabonomic analysis; assay type: cell-based; details: 1 mg/mL of MT, 12 hours
Experimental: 1 mL of fresh Pasteurella multocida (P. multocida) at the logarithmic growth stage was added into 100 mL of fresh Martin liquid medium containing 1 mg/mL of MT, and MT-free DMSO was used as a solvent control group. All cultures were incubated with shaking at 37° C. and 220 rpm for 12 hours. The bacterial samples were centrifuged at a speed of 3000 rpm/min at 4° C. for 10 minutes, the supernatant was removed, and the bacterial cells were collected and washed with PBS for 3 times. The bacterial cells were rapidly frozen in liquid nitrogen, transferred to dry ice, and sent to Shanghai Baiqu Biomedical Technology Co., Ltd. for metabolomic analysis (Q Exactive Orbitrap, Thermo Fisher Scientific, USA). Through the non-targeted metabonomic study of Pasteurella multocida cells before and after melatonin treatment, it was clarified which metabolic pathway of the bacteria is affected by melatonin in exerting the antibacterial activity of melatonin.

[2] = tested on: Streptococcus; experiment: Growth curve with melatonin and citric acid; assay type: cell-based, Streptococcus pneumoniae; details: MT 1-3 mg/mL, FIG. 27
Experimental: In additional studies, 1 mL of Klebsiella pneumoniae, Pseudomonas aeruginosa, Diplococcus pneumoniae and Streptococcus pneumoniae at the logarithmic growth stage was added into 100 mL of fresh and sterile Martin broth medium containing different concentrations of melatonin and citric acid (CA) (MT-1 mg/mL, MT-1 mg/mL-CA-1 mg/mL, MT-1 mg/mL-CA-2 mg/mL, MT-1 mg/mL-CA-3 mg/mL; MT-2 mg/mL, MT-2 mg/mL-CA-1 mg/mL, MT-2 mg/mL-CA-2 mg/mL, MT-2 mg/mL-CA-3 mg/mL; MT-3 mg/mL, MT-3 mg/mL-CA-1 mg/mL, MT-3 mg/mL-CA-2 mg/mL MT-3 mg/mL-CA-3 mg/mL).

[3] = tested on: Avianpathogenic Escherichia coli; experiment: MIC/MBC bacteriostatic and bactericidal test; assay type: cell-based; details: 12 h
Experimental: (§1) 1 mL of a fresh suspension of bacteria (1×10^9 CFU) at the logarithmic growth stage was added into 100 mL containing different concentrations (50 mg/mL, 25 mg/mL, 12.5 mg/mL, 6.25 mg/mL, 3.125 mg/mL, 1.5625 mg/mL, 0.78125 mg/mL, 0.390625 mg/mL) of melatonin. A melatonin (MT)-free solution diluted with DMSO was used as a control group. The samples were shaken at 37° C. and a rotation speed of 120 r/min with protection from light for 12 hours, and then subjected to detection of the minimal inhibitory concentration (MIC) of MT on bacteria. Then, 0.1 mL of the aforementioned transparent bacterial solution was pipetted onto a sterilized agar plate of a specific culture medium and coated evenly, incubated in an incubator at 37° C. for 24 hours, and then subjected to detection of the minimum bactericidal concentration (MBC) of MT on pathogens, wherein the minimum concentration of MT at which no bacterium grew was the MBC of MT on pathogens. Each experiment was carried out for 3 times, and each group was set in triplicate.

[4] = tested on: Mannheimia haemolytica; experiment: MIC/MBC bacteriostatic and bactericidal test; assay type: cell-based
Experimental: as §1

[5] = tested on: Klebsiella pneumoniae; experiment: MIC/MBC bacteriostatic and bactericidal test; assay type: cell-based
Experimental: as §1

[6] = tested on: Escherichia coli C83902 (ATCC72864); experiment: MIC/MBC bacteriostatic and bactericidal test; assay type: cell-based
Experimental: as §1

[7] = tested on: Staphylococcus aureus (ATCC25923); experiment: MIC/MBC bacteriostatic and bactericidal test; assay type: cell-based
Experimental: as §1

[8] = tested on: Pneumococcus; experiment: MIC/MBC bacteriostatic and bactericidal test; assay type: cell-based
Experimental: as §1

[9] = tested on: Enterobacter sakazakii; experiment: MIC/MBC bacteriostatic and bactericidal test; assay type: cell-based; details: Cronobacter sakazakii
Experimental: as §1

[10] = tested on: Salmonella enteritidis (ATCC85090); experiment: MIC/MBC bacteriostatic and bactericidal test; assay type: cell-based; details: Salmonella enterica
Experimental: as §1

[11] = tested on: Pseudomonas aeruginosa; experiment: MIC/MBC bacteriostatic and bactericidal test; assay type: cell-based
Experimental: as §1

[12] = tested on: Acinetobacter baumannii; experiment: MIC/MBC bacteriostatic and bactericidal test; assay type: cell-based
Experimental: as §1

[13] = tested on: Bacillus cereus; experiment: MIC/MBC bacteriostatic and bactericidal test; assay type: cell-based
Experimental: as §1

[14] = tested on: Lactobacillus johnsonii; experiment: MIC/MBC bacteriostatic and bactericidal test; assay type: cell-based
Experimental: as §1

[15] = tested on: Streptococcus pneumoniae; experiment: MIC/MBC bacteriostatic and bactericidal test; assay type: cell-based
Experimental: as §1

[16] = tested on: Listeria monocytogenes (ATCC53005); experiment: MIC/MBC bacteriostatic and bactericidal test; assay type: cell-based
Experimental: as §1

[17] = tested on: Pasteurella multocida; experiment: MIC/MBC bacteriostatic and bactericidal test; assay type: cell-based
Experimental: as §1

[18] = tested on: Bovine meningitic Escherichia coli; experiment: MIC/MBC bacteriostatic and bactericidal test; assay type: cell-based
Experimental: as §1

[19] = tested on: citrate synthase in Streptococcus; experiment: Citrate synthase activity of bacteria after treatment; assay type: cell-based, Streptococcus pneumoniae; details: MT 1-3 mg/mL, 12 h, also with exogenous citric acid, FIG. 28
Experimental: Further, 1 mL of Klebsiella pneumoniae, Pseudomonas aeruginosa, Diplococcus pneumoniae and Streptococcus pneumoniae at the logarithmic growth stage was added into 100 mL of fresh and sterile Martin broth liquid medium containing different concentrations of melatonin and citric acid (MT-1 mg/mL, MT-2 mg/mL, MT-3 mg/mL, CA-1 mg/mL, CA-2 mg/mL, CA-3 mg/mL, MT-1 mg/mL-CA-1 mg/mL, MT-2 mg/mL-CA-2 mg/mL, MT-3 mg/mL-CA-3 mg/mL) added was. Melatonin-free DMSO was used as the solvent control group, and the bacterial cells were cultured in a constant-temperature shaker at 37° C. and 220 rpm for 12 h. Thereafter, 1 mL of the bacterial solution was pipetted and centrifuged at 3000 r/min for 10 minutes. The bacterial cells were then collected and determined for citrate synthase activity according to the protocol of the instructions for the kit. Each experiment was repeated three times, and each group was set in triplicate.

COc1ccc2[nH]cc(CCNC(C)=O)c2c1 [melatonin, N-acetyl-5-methoxytryptamine]
acetyl coenzyme A level in bacterial cells [1]: significantly up-regulated | citric acid level in bacterial cells [1]: significantly down-regulated | pyruvic acid level in bacterial cells [1]: significantly up-regulated | antibacterial activity [2]: exhibits antibacterial activity | MIC [3]: 6250 µg/mL (≈ 26.9 mM) | MIC ([4]; 37° C., 12 hours): 12.5 mg/mL (≈ 53.8 mM) | MBC ([4]; agar plate 37° C., 24 hours): 25 mg/mL (≈ 108 mM) | MIC ([5]; 37° C., 12 hours): 3120 µg/mL (≈ 13.5 mM) | MBC ([5]; agar plate 37° C., 24 hours): 6250 µg/mL (≈ 26.9 mM) | MIC ([6]; 37° C., 12 hours): 12.5 mg/mL (≈ 53.8 mM) | MBC ([6]; agar plate 37° C., 24 hours): 25 mg/mL (≈ 108 mM) | MIC ([7]; 37° C., 12 hours): 50 mg/mL (≈ 215 mM) | MBC ([7]; agar plate 37° C., 24 hours): 50 mg/mL (≈ 215 mM) | MIC ([8]; 37° C., 12 hours): 12.5 mg/mL (≈ 53.8 mM) | MBC ([8]; agar plate 37° C., 24 hours): 25 mg/mL (≈ 108 mM) | MIC ([9]; 37° C., 12 hours): 6250 µg/mL (≈ 26.9 mM) | MBC ([9]; agar plate 37° C., 24 hours): 25 mg/mL (≈ 108 mM) | MIC ([10]; 37° C., 12 hours): 12.5 mg/mL (≈ 53.8 mM) | MBC ([10]; agar plate 37° C., 24 hours): 12.5 mg/mL (≈ 53.8 mM) | MIC ([11]; 37° C., 12 hours): 12.5 mg/mL (≈ 53.8 mM) | MBC ([11]; agar plate 37° C., 24 hours): 12.5 mg/mL (≈ 53.8 mM) | MIC ([12]; 37° C., 12 hours): 12.5 mg/mL (≈ 53.8 mM) | MBC ([12]; agar plate 37° C., 24 hours): 12.5 mg/mL (≈ 53.8 mM) | MIC ([13]; 37° C., 12 hours): 6250 µg/mL (≈ 26.9 mM) | MBC ([13]; agar plate 37° C., 24 hours): 12.5 mg/mL (≈ 53.8 mM) | MIC ([14]; 37° C., 12 hours): 25 mg/mL (≈ 108 mM) | MBC ([14]; agar plate 37° C., 24 hours): 50 mg/mL (≈ 215 mM) | MIC ([15]; 37° C., 12 hours): 12.5 mg/mL (≈ 53.8 mM) | MBC ([15]; agar plate 37° C., 24 hours): 25 mg/mL (≈ 108 mM) | MIC ([16]; 37° C., 12 hours): 12.5 mg/mL (≈ 53.8 mM) | MBC ([16]; agar plate 37° C., 24 hours): 50 mg/mL (≈ 215 mM) | MIC ([17]; 37° C., 12 hours): 1560 µg/mL (≈ 6.73 mM) | MBC ([17]; agar plate 37° C., 24 hours, no bacterium grew): 3120 µg/mL (≈ 13.5 mM) | MIC ([18]; 37° C., 12 hours): 12.5 mg/mL (≈ 53.8 mM) | MBC ([18]; agar plate 37° C., 24 hours): 12.5 mg/mL (≈ 53.8 mM) | enzyme activity of citrate synthase [19]: not influenced
